{"source": "paper PMC10272835", "about": "“Exploration of T cell immune responses by expression of a dominant-negative SHP1 and SHP2” (Frontiers in Immunology, 2023)", "key": {"[1]": {"system": "SHP2", "parameters": "method as in PMID 30972278", "settings": "following activation; ref [29]; cited from earlier work"}, "[2]": {"system": "SupT1-GD2 cells", "assay": "Effect of inhibitory ligand expression on GD2 CAR cytotoxicity", "assay_type": "cell-based", "settings": "ligand expressed on SupT1-GD2, E:T 1:4 and 1:8, 6 days", "experimental": "(§1) Transduced T cells were depleted of CD56 cells using the EasySep Human CD56 positive selection kit (Stemcell Technologies; 17855) and rested for 24 hours. Transduced cells were co-cultured with target cells at the indicated effector: target (E:T) ratios with target cells remaining constant at the indicated number of target cells/co-culture. At the end of the co-culture period target cells were enumerated by flow cytometry and cytotoxicity calculated as a percentage of the number of target cells recovered from co-cultures with non-transduced (NT) T cells.\nFigure 3 Interaction of dSHP2 with immunoinhibitory T cell receptors. (A-E) Binding of dSHP2 to phosphorylated peptides derived from the endodomains of immunoinhibitory T cell receptors. Plates were coated with phosphorylated or non-phosphorylated peptide at the indicated concentration and the purified, His-tagged SH2 domains of dSHP2 were allowed to bind overnight. Binding was measured through detection of the His tag. (F) Effect of inhibitory ligand expression on target cells on CAR T cytotoxicity. […] Supernatants were harvested from these co-cultures and levels of IFNγ measured by ELISA (I). […] Statistical significance was measured by two-way ANOVA. […]"}, "[3]": {"system": "tumor cell lines (SupT1, Nalm6, Raji, Skov3, CHLA, H446)", "assay": "Upregulation of endogenous PDL1 by IFNγ", "assay_type": "cell-based", "settings": "IFNγ 10-400 ng/ml, 24 hours; flow cytometry", "experimental": "In order to assess the effect of upregulation of endogenous PDL1 on tumour cells, cell lines were incubated for 24 hours with increasing amounts of IFNγ (10, 20, 40, 60, 80, 100, 200, 400 ng/ml) and PDL1 levels were assessed by flow cytometry.\n(§2) SupT1 Nalm6 Raji Skov3 CHLA H446\n(§3) Supplementary Figure 4: Effect of endogenous PDL1: A) Tumor cell lines were treated with […]\n(§4) for PDL1 expression. B-D) The indicated tumor cell lines were treated with 100ng/ml IFNγ for 24 hours or left untreated following which 2x10^5 tumor cells were co-cultured with the indicated CAR T cells at an effector:target ratio of 1:1 for 48 hours (Skov3-GD2) or 96 hours (H446, CHLA255) and tumor cell killing assessed by flow cytometry and normalised to respective co-cultures with non-transduced (NT) T cells (100%). Points represent individual […]"}, "[4]": {"system": "Skov3-GD2, H446, CHLA255 cells", "assay": "Target cell killing after IFNγ treatment", "assay_type": "cell-based", "settings": "100ng/ml IFNγ 24 hours; E:T 1:1, 48 hours (Skov3-GD2) or 96 hours (H446, CHLA255)", "experimental": "as §2, §3, §4"}, "[5]": {"system": "SupT1-GD2-PDL1 cells", "assay": "CAR T cytotoxicity, dSHP2 versus SHP2 knock-out", "assay_type": "cell-based", "settings": "GD2 CAR alongside PD1", "experimental": "as §1\n(§5) Expression of the SHP2 (PTPN11) gene was disrupted by Cas9-mediated indel formation. For each sgRNA, 2 samples of 5x10^6 PBMCs were nucleofected in […] of P3 buffer (Lonza; V4XP-3024) with 125 pmol of Alt-R Sp HiFi Cas 9 nuclease v3 (IDT; 108210621) complexed with 187.5 pmol of the PTPN11 sgRNA ([…]) or a non-targeting sgRNA ([…]; Synthego) using pulse code EH-115. Complexing of Cas9 and the sgRNA was carried out at ambient temperature for 10 minutes prior to nucleofection. […] PBMCs were transduced with retroviral constructs 24 hours after nucleofection. PBMCs were collected for genotyping, Western blotting and functional assessment 6 days after nucleofection.\nSupplementary Figure 5: Comparison of dSHP2 expression with genomic excision of SHP2. […]"}, "[6]": {"system": "SHP2 protein", "assay": "Western blot of SHP2 after gene disruption", "assay_type": "cell-based", "settings": "after 6 days, 4 donors", "experimental": "as §5\nCells were stimulated as indicated then 0.5x10^6 cells were harvested and pelleted at 400xg for 2 minutes. The pellets were washed with ice-cold PBS, centrifuged as before and lysed in 50μl of 1x RIPA buffer (Millipore) supplemented with 1x protease and phosphatase inhibitor (Abcam). The cells were incubated on ice for 15 minutes, vortexed and incubated for further 15 minutes. The lysate was clarified by centrifuging the cells at 13000xg for 10 minutes at 4°C, protein concentration was determined using the BCA Protein assay Kit (Pierce) and stored at -80°C until use. Prior to gel electrophoresis lysates were mixed with NuPAGE™ LDS Sample Buffer (4X) (Invitrogen™) and heated at 95°C for 10 minutes. […]"}, "[7]": {"system": "SHP2 (PTPN11) gene", "assay": "SHP2 gene disruption (ICE)", "assay_type": "cell-based", "settings": "Cas9 RNP nucleofection of T cells, after 6 days; 4 donors", "experimental": "as §5\nGenomic DNA was extracted from PBMCs using the GenElute Blood Genomic DNA Kit (Sigma; NA2010) according to the manufacturer’s instructions. The sequence flanking the SHP2 sgRNA target site was amplified by PCR from 100 ng of genomic DNA using Q5 DNA polymerase (NEB; M0491L) and the primers, SHP2_forward 5’-[…]-3’ and SHP2_reverse 5’-[…]-3’ (IDT). The PCR products were Sanger sequenced (Source Bioscience) and indel formation and knockout efficiencies determined by ICE (Synthego), comparing SHP2-edited and non-target-edited sequences to an unedited control."}, "[8]": {"system": "SupT1-GD2-PDL1 target cells", "assay": "IFNγ release, dSHP2 versus Pembrolizumab", "assay_type": "cell-based", "settings": "GD2 CAR; Pembrolizumab 2.5, 5, 10 µg/mL; E:T 1:8, 72 hours", "experimental": "(§6) Supplementary Figure 6: Comparison of dSHP2 with Pembrolizumab. A) T cells expressing RQR8 and the GD2 CAR alone or in combination with PD1 and/or dSHP2 were incubated with 1x10^5 SupT1 cells lacking antigen expression (SupT1-NT) or engineered to express GD2 alone (SupT1-GD2) or in the presence of PDL1 (SupT1-GD2-PDL1) at an effector:target ratio of 1:8 for 72 hours. Pembrolizumab was included in co-cultures with T cells expressing PD1 and the GD2 CAR at the indicated concentrations. Surviving target cells were enumerated and normalized to the respective co-cultures with non-transduced T cells (100%). B) Supernatants from co-cultures in (A) were analyzed for IFNγ by ELISA. C-D) T cells were labelled with Cell Trace Violet and co-cultured with 2x10^5 SupT1 target cells at an E:T ratio of 1:4 for 5 days and CAR T cells enumerated. Bars represent the mean of 3-6 biologically independent replicates. […]"}, "[9]": {"system": "SupT1-GD2-PDL1 cells", "assay": "CAR T cytotoxicity, dSHP2 versus Pembrolizumab", "assay_type": "cell-based", "settings": "Pembrolizumab 2.5, 5, 10 µg/mL, E:T 1:8, 72 hours, 3-6 replicates", "experimental": "as §1\nas §6, with “enumerated.” for “enumerated. Bars represent the mean of 3-6 biologically independent replicates.”"}, "[10]": {"system": "CAR T cells with SupT1-GD2-PDL1 target cells", "assay": "CAR T proliferation, dSHP2 versus Pembrolizumab", "assay_type": "cell-based", "settings": "Pembrolizumab 2.5, 5, 10 µg/mL, E:T 1:4, 5 days", "experimental": "PBMCs were labelled with Cell Trace Violet (CTV) according to manufacturer’s instructions (ThermoFisher Scientific; C34557) and cultured with 0.5x10^5 target cells at 1:1 E:T ratio for 96 hours. Numbers of CD3^+ RQR8+ T cells and CTV MFI were assessed by flow cytometry.\nas §6"}}, "data": [{"molecule": "CC1(N)CCN(c2cnc(-c3cccc(Cl)c3Cl)c(N)n2)CC1", "note": "[SHP099]", "values": [{"measurement": "effect on central memory population, effector molecule expression", "setting": "[1]", "value": "increased central memory population and increased expression of granzyme B, perforin, IFNγ, TNFα and FasL"}, {"measurement": "effect on proliferation or viability", "setting": "[1]", "value": "no effect on proliferation or viability"}]}, {"molecule": "CD80: inhibitory ligand of CTLA4 expressed on SupT1-GD2 cells", "values": [{"measurement": "effect of target cell ligand expression on CAR T cytotoxicity", "setting": "[2]", "value": "mild enhancement of CAR T cytotoxicity"}]}, {"molecule": "IFNγ: exogenous IFNγ used to upregulate PDL1 on tumor cell lines", "values": [{"measurement": "PDL1 upregulation", "setting": "[3]", "value": "did upregulate PDL1 in some cell lines"}, {"measurement": "target cell killing with exogenous IFNγ", "setting": "[4]", "value": "increased target cell killing"}]}, {"molecule": "SHP2-directed sgRNA: PTPN11 sgRNA (GAGACUUCACACUUUCCGUU) complexed with Cas9 nuclease (complexed with Cas9 nuclease, further chemistry not given here)", "values": [{"measurement": "relief of PDL1-mediated inhibition of CAR T cells", "setting": "[5]", "value": "substantially less"}, {"measurement": "SHP2 protein level", "setting": "[6]", "value": "significant decrease in SHP2 protein"}, {"measurement": "indel formation", "setting": "[7]", "value": "greater than 80%"}]}, {"molecule": "pembrolizumab: antibody blocking PD1", "values": [{"measurement": "restoration of IFNγ release, compared with Pembrolizumab", "setting": "[8]", "value": "slightly greater restoration of IFNγ secretion at the highest concentration"}, {"measurement": "restoration of killing, compared with Pembrolizumab", "setting": "[9]", "value": "comparable effects"}, {"measurement": "restoration of proliferation, compared with Pembrolizumab", "setting": "[10]", "value": "comparable effects"}]}]}
